Source: US9783536B2, “Nitrogen-containing heterocyclic compound or salt thereof” (FUJIFILM Corporation, priority 2013, dated 2017)
Like-named read-outs stand apart in the source and are kept apart here.

Experiments:
human PI3Kα protein = target: T1, human PI3Kα protein (Homo sapiens, UniProt P42336); experiment: PI3Kα enzyme assay (ADP-Glo); format: biochemical; settings: read-out: PI3Kα enzyme inhibitory activity
T1 construct: purchased Carna Biosciences, Inc; host or cells: baculovirus expression system
Procedure, shortened: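 Biotinylated human PI3Kα (baculovirus-expressed, 4.5 nmol/L) pre-incubated 15 min with compound in Tris-HCl pH 7.5, MgCl2, BSA; reaction 60 min at 25° C with 50 μmol/L PIP2 and 100 μmol/L ATP final. ADP quantified by ADP-Glo luminescence; IC50 calculated.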

[1] = target: T2, GST fusion human ERK2 protein (Homo sapiens, UniProt P28482); experiment: ERK2 enzyme assay (2); format: biochemical; settings: read-out: ERK2 enzyme inhibitory activity (2)
T2 construct: purchased Carna Biosciences, Inc; host or cells: E. coli expression system
Procedure, shortened: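 IC50 values come from mobility-shift measurement of phosphorylated versus unphosphorylated 5-FAM peptide substrate after EDTA quench. Beforehand, compound and 1.25 nmol/L E. coli-expressed GST–human ERK2 stood 15 min at room temperature (pH 7.5), then 1 mmol/L ATP and 4.25 μmol/L substrate (final) were added for 120 min at 25 °C.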

T1 sequence (P42336 whole entry): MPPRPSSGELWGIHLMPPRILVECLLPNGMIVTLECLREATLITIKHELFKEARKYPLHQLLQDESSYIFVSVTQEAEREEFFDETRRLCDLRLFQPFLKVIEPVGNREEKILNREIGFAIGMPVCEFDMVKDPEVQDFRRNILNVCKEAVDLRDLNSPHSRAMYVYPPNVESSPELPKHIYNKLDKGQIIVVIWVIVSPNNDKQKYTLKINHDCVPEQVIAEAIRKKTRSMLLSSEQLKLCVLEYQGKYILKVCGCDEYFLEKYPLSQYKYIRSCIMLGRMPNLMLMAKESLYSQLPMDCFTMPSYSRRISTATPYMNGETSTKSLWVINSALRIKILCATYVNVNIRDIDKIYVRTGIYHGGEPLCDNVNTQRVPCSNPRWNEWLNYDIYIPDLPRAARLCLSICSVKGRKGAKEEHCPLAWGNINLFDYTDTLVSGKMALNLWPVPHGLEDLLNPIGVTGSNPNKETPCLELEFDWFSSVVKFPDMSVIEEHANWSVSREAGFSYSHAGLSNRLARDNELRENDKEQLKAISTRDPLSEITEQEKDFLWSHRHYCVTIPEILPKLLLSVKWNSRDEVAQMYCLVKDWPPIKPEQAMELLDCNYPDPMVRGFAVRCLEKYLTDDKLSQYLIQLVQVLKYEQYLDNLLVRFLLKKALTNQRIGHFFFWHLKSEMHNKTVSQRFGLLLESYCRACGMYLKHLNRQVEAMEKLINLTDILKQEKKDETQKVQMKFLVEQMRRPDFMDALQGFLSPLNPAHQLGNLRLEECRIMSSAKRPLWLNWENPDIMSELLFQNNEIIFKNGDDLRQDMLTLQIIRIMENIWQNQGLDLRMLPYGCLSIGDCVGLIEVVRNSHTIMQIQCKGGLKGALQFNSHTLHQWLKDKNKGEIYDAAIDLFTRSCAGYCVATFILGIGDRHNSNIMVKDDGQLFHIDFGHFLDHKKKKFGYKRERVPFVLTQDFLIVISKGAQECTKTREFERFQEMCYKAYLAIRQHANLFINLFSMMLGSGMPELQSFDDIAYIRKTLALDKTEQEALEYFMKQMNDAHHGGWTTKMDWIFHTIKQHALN
T1 sequence (P27986 whole entry partner): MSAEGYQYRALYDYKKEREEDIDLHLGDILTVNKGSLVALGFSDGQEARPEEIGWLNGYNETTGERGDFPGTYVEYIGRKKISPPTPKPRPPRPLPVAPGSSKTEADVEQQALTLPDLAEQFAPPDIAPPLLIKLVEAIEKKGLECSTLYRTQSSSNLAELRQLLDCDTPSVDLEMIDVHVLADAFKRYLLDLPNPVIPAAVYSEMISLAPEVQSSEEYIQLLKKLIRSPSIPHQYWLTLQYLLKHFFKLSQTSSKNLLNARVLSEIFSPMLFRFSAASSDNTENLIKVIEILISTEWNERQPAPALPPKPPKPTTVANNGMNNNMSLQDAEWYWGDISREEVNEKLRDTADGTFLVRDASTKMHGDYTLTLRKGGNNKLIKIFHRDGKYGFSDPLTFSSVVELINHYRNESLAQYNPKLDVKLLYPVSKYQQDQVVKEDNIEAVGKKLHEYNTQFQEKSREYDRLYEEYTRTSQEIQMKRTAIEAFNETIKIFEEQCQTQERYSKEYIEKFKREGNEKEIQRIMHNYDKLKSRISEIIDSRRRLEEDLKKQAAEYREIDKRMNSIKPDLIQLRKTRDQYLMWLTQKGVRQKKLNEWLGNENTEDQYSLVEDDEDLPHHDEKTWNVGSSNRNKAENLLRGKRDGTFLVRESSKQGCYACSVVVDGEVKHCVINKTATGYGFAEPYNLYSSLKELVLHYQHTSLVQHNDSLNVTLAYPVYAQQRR
T2 sequence (P28482 whole entry, the tested form may be a part): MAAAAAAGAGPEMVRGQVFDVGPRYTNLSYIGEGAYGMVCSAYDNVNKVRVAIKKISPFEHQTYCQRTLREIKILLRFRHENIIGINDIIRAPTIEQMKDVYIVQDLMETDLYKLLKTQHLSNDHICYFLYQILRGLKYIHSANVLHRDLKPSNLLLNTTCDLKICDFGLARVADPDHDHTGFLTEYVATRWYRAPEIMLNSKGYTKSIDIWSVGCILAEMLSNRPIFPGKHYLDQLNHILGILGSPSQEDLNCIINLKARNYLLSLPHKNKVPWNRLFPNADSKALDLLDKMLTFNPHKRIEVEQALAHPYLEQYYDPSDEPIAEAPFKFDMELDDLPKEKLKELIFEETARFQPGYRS

| Compound | IC50 (human PI3Kα protein) | IC50 ([1]; ERK2 enzyme assay (2)) | IC50 [1] |
| --- | --- | --- | --- |
| Cc1nn(C)cc1-c1cnc2ccc(Nc3cc(C(C)C)no3)nc2c1 [Example 0848, N-(7-(1,3-dimethyl-1H-pyrazol-4-yl)-1,5-naphthyridin-2-yl)-3-isopropylisoxazole-5-amine] | 1 to 10 µM | 1 to 10 µM | – |
| Cc1ccncc1-c1cnc2ccc(Nc3cc(C(C)C)cnn3)nc2c1 [Example 0600] | 1 to 10 µM | < 1 µM | – |
| CCN(CCO[Si](C)(C)C(C)(C)C)c1cnnc(Nc2ccc3ncc(-c4cnn(C)c4)cc3n2)c1 [Example 0524] | 10 to 50 µM | < 1 µM | – |
| COc1ccc(Cn2cc(-c3cnc4ccc(Nc5cc(C(C)C)cnn5)nc4c3)cn2)cn1 [Example 0453, N-(5-isopropylpyridazin-3-yl)-7-(1-((6-methoxypyridin-3-yl)methyl)-1H-pyrazol-4-yl)-1,5-naphthyridine-2-amine] | < 1 µM | < 1 µM | – |
| Cc1cncc(-c2cnc3ccc(Nc4cc(C(C)C)cnn4)nc3c2)c1 [Example 0598] | 1 to 10 µM | < 1 µM | – |
| CC1CN(CCCn2cc(-c3cnc4ccc(Nc5cc(C(C)C)cnn5)nc4c3)cn2)C(C)CO1 (centres unmarked) [Example 0674] | < 1 µM | < 1 µM | – |
| COCCOC1CN(c2nn(C)cc2-c2cnc3ccc(Nc4cc(C(C)C)cnn4)nc3c2)C1 [Example 0933] | < 1 µM | – | < 1 µM |
| CC(C)c1cnnc(Nc2ccc3ncc(NC4CCCC4)cc3n2)c1 [Example 0878] | < 1 µM | 1 to 10 µM | – |
| CC(C)c1cnnc(Nc2ccc3ncc(/C=C/c4ccccn4)cc3n2)c1 [Example 0656, (E)-N-(5-isopropylpyridazin-3-yl)-7-(2-(pyridin-2-yl)vinyl)-1,5-naphthyridine-2-amine] | < 1 µM | 1 to 10 µM | – |
| CC(C)c1cnnc(Nc2ccc3ncc(N4CCC(=O)N(C)CC4)cc3n2)c1 [Example 0862] | < 1 µM | < 1 µM | – |
| CC(C)c1cnnc(Nc2ccc3ncc(N4CCC(S(N)(=O)=O)C4)cc3n2)c1 (centres unmarked) [Example 0900] | < 1 µM | 1 to 10 µM | – |
| Cc1ccc(-c2nn(C)cc2-c2cnc3ccc(Nc4cc(C(C)C)cnn4)nc3c2)cn1 [Example 0734] | < 1 µM | < 1 µM | – |
| CC(C)c1cnnc(Nc2ccc3ncc(NC(=O)CO)cc3n2)c1 [Example 0662, 2-hydroxy-N-(6-((5-isopropylpyridazin-3-yl)amino)-1,5-naphthyridin-3-yl)acetamide] | < 1 µM | 1 to 10 µM | – |
| CC(C)c1cnnc(Nc2ccc3ncc(C4=CCOCC4)cc3n2)c1 [Example 0580] | < 1 µM | < 1 µM | – |
| Cn1cc(-c2cnc3ccc(Nc4cc(C(C)(C)O)cnn4)nc3c2)c(-c2ccncc2)n1 [Example 0782] | < 1 µM | < 1 µM | – |
| CCOC(=O)N1CCN(CCCn2cc(-c3cnc4ccc(Nc5cc(C(C)C)cnn5)nc4c3)cn2)CC1 [Example 0437, Ethyl 4-(3-(4-(6-((5-isopropylpyridazin-3-yl)amino)-1,5-naphthyridin-3-yl)-1H-pyrazol-1-yl)propyl)piperazine-1-carboxylate] | < 1 µM | < 1 µM | – |
| Cc1cnnc(Nc2ccc3ncc(-c4cn(C)nc4-c4ccc(C#N)nc4)cc3n2)c1 [Example 0457] | < 1 µM | 10 to 50 µM | – |
| CCn1cc(-c2cnc3ccc(Nc4cc(C(C)C)cnn4)nc3c2)c(-c2ccncc2)n1 [Example 0771] | < 1 µM | < 1 µM | – |
| CC(C)c1cnnc(Nc2ccc3ncc(-c4cn(C)nc4NC4CCOCC4)cc3n2)c1 [Example 0832] | < 1 µM | < 1 µM | – |
| CC(C)c1cnnc(Nc2ccc3ncc(-c4cn(C)nc4-c4ccc(OCCN5CCCCC5)cc4)cc3n2)c1 [Example 0778] | < 1 µM | < 1 µM | – |
| CC(=O)Nc1cc(-c2cnc3ccc(Nc4cc(C(C)C)cnn4)nc3c2)ccn1 [Example 0421, N-(4-(6-((5-isopropylpyridazin-3-yl)amino)-1,5-naphthyridin-3-yl)pyridin-2-yl)acetamide] | < 1 µM | < 1 µM | – |
| CC(C)c1cnnc(Nc2ccc3ncc(-c4cn(C)nc4Nc4cccnc4)cc3n2)c1 [Example 0469] | < 1 µM | < 1 µM | – |
| CC(C)c1cnnc(Nc2ccc3ncc(N4CCOC[C@@H]4C)cc3n2)c1 [Example 0764] | < 1 µM | < 1 µM | – |
| CC(C)c1cnnc(Nc2ccc3ncc(-c4cnn(CCCN5CC(Oc6ccccc6)C5)c4)cc3n2)c1 [Example 0715, N-(5-isopropylpyridazin-3-yl)-7-(1-(3-(3-phenoxyazetidin-1-yl)propyl)-1H-pyrazol-4-yl)-1,5-naphthyridine-2-amine] | < 1 µM | < 1 µM | – |
| COc1cnnc(Nc2ccc3ncc(-c4cnn(C)c4)cc3n2)c1 [Example 0495, N-(5-methoxypyridazin-3-yl)-7-(1-methyl-1H-pyrazol-4-yl)-1,5-naphthyridine-2-amine] | < 1 µM | < 1 µM | – |
| CC(C)c1cnnc(Nc2ccc3ncc(-c4cnn(Cc5ccc(N)cc5)c4)cc3n2)c1 [Example 0717, 7-(1-(4-Aminobenzyl)-1H-pyrazol-4-yl)-N-(5-isopropylpyridazin-3-yl)-1,5-naphthyridine-2-amine] | < 1 µM | < 1 µM | – |
| CC(C)c1cnnc(Nc2ccc3ncc(C4=CCN(C(=O)OC(C)(C)C)C4)cc3n2)c1 [Example 0892, tert-butyl 3-(6-((5-isopropylpyridazin-3-yl)amino)-1,5-naphthyridin-3-yl)-2,5-dihydro-1H-pyrrole-1-carboxylate] | 1 to 10 µM | 1 to 10 µM | – |
| CC(C)c1cnnc(Nc2ccc3ncc(-c4ncccn4)cc3n2)c1 [Example 0605] | < 1 µM | < 1 µM | – |

Results, then the molecule that gave them:

| IC50 (human PI3Kα protein) | IC50 ([1]; ERK2 enzyme assay (2)) | IC50 [1] | Compound |
| --- | --- | --- | --- |
| < 1 µM | < 1 µM | – | CC(C)c1cnnc(Nc2ccc3ncc(-c4cnn(CCCN5CC(OC(F)F)C5)c4)cc3n2)c1 [Example 0681] |
| < 1 µM | < 1 µM | – | CC(C)c1cnnc(Nc2ccc3ncc(-c4cnn(CCCN5CCOC(C)(C)C5)c4)cc3n2)c1 [Example 0658] |
| < 1 µM | – | < 1 µM | CC(C)c1cnnc(Nc2ccc3ncc(N4CC5CC(C4)O5)cc3n2)c1 [Example 0902] |
| < 1 µM | – | < 1 µM | CC(C)c1cnnc(Nc2ccc3ncc(-c4cn(C)nc4N4CCCC4)cc3n2)c1 [Example 0937] |
| < 1 µM | < 1 µM | – | CC(C)c1cnnc(Nc2ccc3ncc(-c4cnn(CCCN5CC(OCc6ccccc6)C5)c4)cc3n2)c1 [Example 0680] |
| < 1 µM | < 1 µM | – | CC(C)c1cnnc(Nc2ccc3ncc(-c4cnn(Cc5cscn5)c4)cc3n2)c1 [Example 0449] |
| < 1 µM | < 1 µM | – | CC(C)c1cnnc(Nc2ccc3ncc(-c4cnn(CC5CCN(C(=O)N6CCCC6)CC5)c4)cc3n2)c1 [Example 0539] |
| < 1 µM | – | < 1 µM | CC(C)c1cnnc(Nc2ccc3ncc(-c4cn(C)nc4CN4CCOCC4)cc3n2)c1 [Example 0942, N-(5-isopropylpyridazin-3-yl)-7-(1-methyl-3-(morpholinomethyl)-1H-pyrazol-4-yl)-1,5-naphthyridine-2-amine] |
| < 1 µM | < 1 µM | – | COCCOC1CN(CCCn2cc(-c3cnc4ccc(Nc5cc(C(C)C)cnn5)nc4c3)cn2)C1 [Example 0718, N-(5-isopropylpyridazin-3-yl)-7-(1-(3-(3-(2-methoxyethoxy)azetidin-1-yl)propyl)-1H-pyrazol-4-yl)-1,5-naphthyridine-2-amine] |
| < 1 µM | < 1 µM | – | Cc1nn(CCCO)cc1-c1cnc2ccc(Nc3cc(C(C)C)cnn3)nc2c1 [Example 0800, 3-(4-(6-((5-Isopropylpyridazin-3-yl)amino)-1,5-naphthyridin-3-yl)-3-methyl-1H-pyrazol-1-yl)propan-1-ol] |
| < 1 µM | < 1 µM | – | CC(C)c1cnnc(Nc2ccc3ncc(-n4cnc(CC#N)c4)cc3n2)c1 [Example 0508, 2-(1-(6-((5-Isopropylpyridazin-3-yl)amino)-1,5-naphthyridin-3-yl)-1H-imidazol-4-yl)acetonitrile] |
| < 1 µM | < 1 µM | – | CC(C)c1cnnc(Nc2ccc3ncc(-c4cnn(CCC(=O)N5CCCCC5)c4)cc3n2)c1 [Example 0416] |
| < 1 µM | < 1 µM | – | CC(C)c1cnnc(Nc2ccc3ncc(-c4cn(C)nc4-c4ccccc4)cc3n2)c1 [Example 0579] |
| < 1 µM | < 1 µM | – | CC(C)c1cnnc(Nc2ccc3ncc(-c4cnn(C[C@H]5CCC(=O)N5)c4)cc3n2)c1 [Example 0566] |
| < 1 µM | < 1 µM | – | CC(C)c1cnnc(Nc2ccc3ncc(-c4cnn(CCOC5CN(C)C5)c4)cc3n2)c1 [Example 0741, N-(5-isopropylpyridazin-3-yl)-7-(1-(2-((1-methylazetidin-3-yl)oxy)ethyl)-1H-pyrazol-4-yl)-1,5-naphthyridine-2-amine] |
| < 1 µM | 1 to 10 µM | – | Cc1ccncc1-c1nn(C)cc1-c1cnc2ccc(Nc3cc(C(C)C)cnn3)nc2c1 [Example 0736] |
| < 1 µM | – | < 1 µM | CC(C)c1cnnc(Nc2ccc3ncc(C4=CCN(C(=O)N(C)C)C4)cc3n2)c1 [Example 0907, 3-(6-((5-Isopropylpyridazin-3-yl)amino)-1,5-naphthyridin-3-yl)-N,N-dimethyl-2,5-dihydro-1H-pyrrole-1-carboxamide] |
| < 1 µM | < 1 µM | – | CC(C)c1cnnc(Nc2ccc3ncc(-c4cnn(Cc5cncnc5)c4)cc3n2)c1 [Example 0722] |
